US20070093520A1, “Method of treatment of diarrhea-predominant irritable bowel syndrome in a subject” (priority 2005, published 2007)

Experiments:
Type in all cases: in vivo, human
[1] = system: non-constipated IBS subjects; assay: Phase II clinical trial Study S241.2.113, adequate relief of IBS symptoms; details: 2 mg TID
[2] = system: subjects with ROME II defined IBS-D; assay: 5050 Study: IBS-QoL survey; parameters: IBS-QoL subscale score: Interference with activity / IBS-QoL subscale score: Food avoidance / IBS-QoL subscale score: Sexual / IBS-QoL subscale score: Health Worry / IBS-QoL subscale score: Relationship / IBS-QoL subscale score: Body Image / IBS-QoL subscale score: Social Reaction / IBS-QoL subscale score: Dysphoria: scale not given here; details: Study 5050
Protocol: (§1) The 5050 Study was a double-blind, randomized, placebo-controlled study to evaluate the long-term safety and tolerability of cilansetron 2 mg taken on an as needed (prn) basis for 1 year by male and female subjects with ROME II defined IBS-D. The study was performed in 68 centers. Patients were randomized in a 3:1 ratio to receive either cilansetron 2 mg prn or placebo, up to 3 times a day. Safety parameters were explored by comparing the double-blind groups, average daily doses and treatment exposure. Patient visits were scheduled as follows: Visit 1 (pretreatment), Visit 2 (Day 1), Visit 3 (Month 1), Visit 4 (Month 3), Visit 5 (Month 6), Visit 6 (Month 9), and Visit 7 (Month 12). Safety assessments included: adverse events (AEs)/serious adverse events (SAES); laboratory parameters (pretreatment visit and at Months 1, 6, and 12); electrocardiograms (pretreatment visit and at Months 1, 6, and 12); vital signs (at each visit); physical examinations and body weight (pretreatment visit and at Month 12); prior and concomitant medication use (each visit and/or through spontaneous reporting); stool cards for occult blood (every visit except Visit 1). The number of tablets taken per day was recorded daily through a validated interactive voice response system. Patients who met the ROME criteria for IBS and ROME II criteria for the diarrhea predominant subpopulation were included in the study. Patients with acute colitis of any etiology, history of chronic colitis of any etiology, or a history of intestinal obstruction, stricture, toxic megacolon, gastrointestinal (GI) perforation, or fecal impaction were excluded from the study.
Subjects were asked to complete a IBS-QOL Survey at Day 1 (Visit 5 of the core protocol), Month 6 and Month 12 (end of study or early termination) in order to assess possible changes of their QOL. The IBS-QoL survey, a 34 item IBS-specific QoL questionnaire consisting of 8 subscales (i.e., interference with activity; body image; health worry; food avoidance; social reaction; sexual; relationship; and dysphoria) was completed by patients at baseline and at later specified time points (e.g., at week 12 and at week 16 in Study 5050).

[3] = system: subjects with ROME II defined IBS-D; assay: 5050 Study: double-blind placebo-controlled prn safety study, adverse events and withdrawals; details: Study 5050
Protocol: as §1
For Study 5050, of a total of 402 patients randomized to treatment, 400 received study medication and 395 were included in the safety analysis (cilansetron, N=301; placebo, N=94). Five patients were excluded because of a lack of a post-baseline safety evaluation. Thirty nine percent of patients in the cilansetron group and 56% in the placebo group withdrew from the study; the differences in withdrawals largely were due to lack of efficacy (15% v. 34%, respectively), followed by other unspecified reasons (16% v. 19%, respectively) and AEs (10% v. 9%, respectively). Most patients (57%) were in the 41 to 64 year age category and 72% of all patients were female.

[4] = Table 10.5, time point not stated

Cc1nccn1C[C@H]1CCc2c(c3cccc4c3n2CCC4)C1=O [cilansetron, (R)-(−)-4,5,6,8,9,10-hexahydro-10-[(2-methyl-1H-imidazol-1-yl)methyl]-11H-pyrido-[3,2,1-jk]-carbazol-11-one]
adequate relief of IBS symptoms versus placebo [1]: superior to placebo
IBS-QoL subscale score: Body Image [2, 4]: 61.7
IBS-QoL subscale score: Dysphoria [2, 4]: 47.4
IBS-QoL subscale score: Food avoidance [2, 4]: 38.3
IBS-QoL subscale score: Health Worry [2, 4]: 65.3
IBS-QoL subscale score: Interference with activity [2, 4]: 41.1
IBS-QoL subscale score: Relationship [2, 4]: 62.5
IBS-QoL subscale score: Sexual [2, 4]: 72.2
IBS-QoL subscale score: Social Reaction [2, 4]: 58.3
change from baseline of IBS-QoL total score, interference with activity, body image, sexual score and dysphoria ([2]; p<0.050): significant improvement
Treatment-related AE: Alanine aminotransferase increased ([3]; 2 mg prn (N = 301)): 9 (3) N (%)
Treatment-related AE: Diarrhea (not otherwise specified) ([3]; 2 mg prn (N = 301)): 5 (2) N (%)
Treatment-related AE: Flatulence ([3]; 2 mg prn (N = 301)): 6 (2) N (%)
Treatment-related AE: Headache (not otherwise specified) ([3]; 2 mg prn (N = 301)): 13 (4) N (%)
Treatment-related AE: Nausea ([3]; 2 mg prn (N = 301)): 15 (5) N (%)
Treatment-related AE: Rectal Hemmorhage ([3]; 2 mg prn (N = 301)): 8 (3) N (%)
treatment-related AE: abdominal pain not otherwise specified ([3]; 2 mg prn (N = 301)): 16 (5) N (%)
treatment-related AE: constipation ([3]; 2 mg prn (N = 301)): 24 (8) N (%)
AE incidence: GI and abdominal pain (excluding oral and throat) ([3]; cilansetron group): 12%
AE incidence: GI atonic and hypomotility disorders ([3]; cilansetron group): 11%
AE incidence: nausea and vomiting ([3]; cilansetron group): 7%
AE leading to study discontinuation: abdominal pain ([3]; cilansetron group): 2%
AE leading to study discontinuation: constipation ([3]; cilansetron group): 2%
treatment-related AE: abdominal pain not otherwise specified ([3]; cilansetron group): 5%
treatment-related AE: constipation ([3]; cilansetron group): 8%
withdrawals due to AEs ([3]; cilansetron group): 10%
withdrawals due to lack of efficacy ([3]; cilansetron group): 15%
